Reference: patent US9328130B2, “Method of treating organism by biologically active compounds specifically delivered into mitochondria, pharmaceutical composition required for the use of the method and a compound applicable for this purpose” (MITOTECH S.A., priority 2005, dated 2016)

Experiments:
Plants cuttings = experiment: Development of higher plants under darkness stress; assay type: in vivo
Experimental: Plants cuttings were grown at the artificial agarized medium MS supplemented with 1 μM SkQ1 (3 plants) and with no addition of SkQ1 as a control (3 plants). Cuttings were placed into 50 ml transparent tubes and grown in climate chamber for 3 weeks at 27° C. and periodical illumination (14 h of light, 10 h of darkness). Then the plants were subjected to darkness stress, i.e. were grown in complete darkness for 7 days.

[1] = Oxidation of quinols by superoxide-anion radicals generated in xanthine oxidase/hypoxanthine system; assay type: biochemical
Source text: In order to compare antioxidant activity of the reduced forms, we measured the oxidation rate of quinols by superoxide-anion radicals generated in xanthine oxidase/hypoxanthine system.

Yarrowia lipolytica = experiment: Protection of yeast cells from death caused by hydrogen peroxide; assay type: cell-based
OXYS rats = experiment: Cataract and macular dystrophy in senescence-accelerated OXYS rats; assay type: in vivo, rat
Experimental: The animals were housed in cages (45*35*35 cm) and kept under standard laboratory conditions (at 22±1° C., 60% relative humidity, and natural light), provided with a standard rodent diet (PK-120-1, Ltd. ‘Laboratorsnab’, Russia), and given water ad libitum. At the age of 1.5 months after preliminary pupil dilation with 1% tropicamide ophthalmic the rats were conducted through ophthalmoscopic examination using direct ophthalmoscop “Betta”, Germany. […] We use Vitamin E for a comparison with test antioxidants. Animals received the compounds on a small piece of dried bread before a regular meal, and the control group of animals received the same piece of bread without any compound. After completing the course of antioxidants the animals were retested with ophthalmoscope. To avoid human factor in the evaluation of compound effects the researcher who conducted the ophthalmoscopic examination was not told which of the animals received antioxidants. The lens state was evaluated according to the classification system accepted in clinical practice with grades ranging from 0 to 3: score 0—the lens is clear; score 1—spotted weak cloudiness; score 2—multiple spots of cloudiness and score 3—intense cloudiness of the lens core and nucleus.

[2] = OXYS rats age 3 months after oral course

CC1=C(C)C(=O)C(CCCCCCCCCC[P+](c2ccccc2)(c2ccccc2)c2ccccc2)=CC1=O.[Br-] [SkQ1, 2,3-dimethyl-1,4-benzoquinon-5-decyl-triphenylphosphonium bromide]
colour of plants after darkness stress (Plants cuttings; 1 μM in MS medium, 7 days complete darkness): retained their green color
plant size in comparison to control plants (Plants cuttings; 1 μM, additional 20 days normal lighting): more than 3 times
oxidation rate in the presence of both air oxygen and superoxide radical relative to MitoQ ([1]; FIG. 3a): about two times higher
oxidation rate of quinol form by superoxide radical relative to MitoQ ([1]; oxidation by air oxygen subtracted, FIG. 3b): very much faster than MitoQ
concentration as effective as 25 μM α-tocopherol (Yarrowia lipolytica): 10 -fold lower
death of cells caused by hydrogen peroxide (Yarrowia lipolytica; 10 mM hydrogen peroxide): partially prevents the death
effect on survival compared among protectants (Yarrowia lipolytica; FIG. 14, α-tocopherol 25 μM): very similar
2nd stage of cataract (OXYS rats; [2]): all of them were defined as the 1st stage of cataract
2nd stage of macular degeneration (OXYS rats; [2]): also were defined as the 1st stage of macular degeneration
changes in the macular area of the retina (OXYS rats; [2]): 38%
eyes with lens changes (OXYS rats; OXYS rats age 3 months after oral course from 1.5 to 3 months): 46%
